Reference: article PMC9736855, “Discovery of 3-Amino-1H-pyrazole-Based Kinase Inhibitors to Illuminate the Understudied PCTAIRE Family” (International Journal of Molecular Sciences, 2022)

Experiments:
[1] = target: T1, DMPK1 (Homo sapiens, UniProt Q09013); experiment: DSF; assay type: binding
T1 construct: purchased in-house DSF panel (SGC Frankfurt)
T1 sequence (Q09013 1-629): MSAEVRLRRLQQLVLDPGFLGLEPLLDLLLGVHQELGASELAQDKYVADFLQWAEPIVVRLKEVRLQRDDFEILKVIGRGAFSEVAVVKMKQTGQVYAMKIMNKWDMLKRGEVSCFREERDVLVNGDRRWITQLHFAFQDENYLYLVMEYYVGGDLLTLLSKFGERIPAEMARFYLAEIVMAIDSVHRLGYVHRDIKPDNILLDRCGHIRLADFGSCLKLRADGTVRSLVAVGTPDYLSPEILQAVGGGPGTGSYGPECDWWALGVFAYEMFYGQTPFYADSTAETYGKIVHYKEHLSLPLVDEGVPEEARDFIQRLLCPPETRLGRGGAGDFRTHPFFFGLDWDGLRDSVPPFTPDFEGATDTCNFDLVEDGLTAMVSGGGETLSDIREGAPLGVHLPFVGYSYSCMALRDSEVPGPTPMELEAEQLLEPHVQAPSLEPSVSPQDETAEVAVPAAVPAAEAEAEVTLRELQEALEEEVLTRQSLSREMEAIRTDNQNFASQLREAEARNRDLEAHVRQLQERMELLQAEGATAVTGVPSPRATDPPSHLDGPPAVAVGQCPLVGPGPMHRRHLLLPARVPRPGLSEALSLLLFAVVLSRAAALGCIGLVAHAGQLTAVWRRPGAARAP
Description: (§2) Recombinant protein kinase domains with a concentration of 2 μM were mixed with a 10 μM compound solution in DMSO, 20 mM HEPES, pH 7.5, and 500 mM NaCl. SYPRO Orange (5000×, Invitrogen) was added as a fluorescence probe (1 µl per mL). Subsequently, temperature-dependent protein unfolding profiles were measured, using the QuantStudio™ 5 realtime PCR machine (Thermo Fisher, Waltham, MA, USA). […] The temperature was raised with a step rate of 3 °C per minute. Data points were analyzed with the internal software (Thermal Shift SoftwareTM Version 1.4, Thermo Fisher) using the Boltzmann equation to determine the inflection point of the transition curve [56]. Differences in melting temperature are given as ΔTm values in °C. Measurements were performed in duplicates.

[2] = target: T2, SRC (Homo sapiens, UniProt P12931); experiment: DSF; assay type: binding;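 note: compound tested at 10 µM with 2 µM protein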
T2 construct: purchased in-house DSF panel (SGC Frankfurt)
Description: as §2

[3] = target: T3, EPHA5 (Homo sapiens, UniProt P54756); experiment: DSF; assay type: binding;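 note: compound tested at 10 µM with 2 µM protein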
T3 construct: purchased in-house DSF panel (SGC Frankfurt)
T3 sequence (P54756 653-939): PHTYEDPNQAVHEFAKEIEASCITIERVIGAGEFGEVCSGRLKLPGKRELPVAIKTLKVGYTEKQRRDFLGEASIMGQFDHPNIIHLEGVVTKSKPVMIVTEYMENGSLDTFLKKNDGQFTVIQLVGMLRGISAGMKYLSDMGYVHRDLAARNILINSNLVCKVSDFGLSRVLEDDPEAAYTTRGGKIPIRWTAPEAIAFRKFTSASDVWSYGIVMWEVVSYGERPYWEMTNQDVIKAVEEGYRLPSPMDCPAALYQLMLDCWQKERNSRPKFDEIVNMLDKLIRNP
Description: as §2

[4] = target: T4, CAMK2D (Homo sapiens, UniProt Q13557); experiment: DSF; assay type: binding;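 note: compound tested at 10 µM with 2 µM protein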
T4 construct: purchased in-house DSF panel (SGC Frankfurt)
Description: as §2

[5] = target: T5, FGFR2 (Homo sapiens, UniProt P21802); experiment: DSF; assay type: binding;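 note: compound tested at 10 µM with 2 µM protein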
T5 construct: purchased in-house DSF panel (SGC Frankfurt)
Description: as §2

[6] = target: CDK18/Cyclin Y (Homo sapiens, UniProt Q07002); experiment: NanoBRET; assay type: cell-based; settings: read-out: NanoBRET EC50 ± SEM CDK18/Cyclin Y
Description: (§1) The assay was performed as described previously. In brief: Full-length kinases were obtained as plasmids cloned in frame with a terminal NanoLuc-fusion (Promega, Madison, WI, USA), as specified in table (Table S6). Plasmids were transfected into HEK293T cells using FuGENE HD (Promega, E2312) and proteins were allowed to express for 20h. Serially diluted inhibitor and NanoBRET Kinase Tracer (Promega) at a concentration determined previously as the KD,app (Table S5) were pipetted into white 384-well plates (Greiner 781207) using an Echo acoustic dispenser (Labcyte, San Jose, CA, USA). The corresponding protein-transfected cells were added and reseeded at a density of 2.5 × 10^5 cells/mL after trypsinization and resuspending in Opti-MEM without phenol red (Life Technologies, Carlsbad, CA, USA). The system was allowed to equilibrate for 2 h at 37 °C/5% CO2 prior to BRET measurements. To measure BRET, NanoBRET NanoGlo Substrate + Extracellular NanoLuc Inhibitor (Promega, N2540) was added as per the manufacturer’s protocol, and filtered luminescence was measured on a PHERAstar plate reader (BMG Labtech, Ortenberg, Germany) equipped with a luminescence filter pair (450 nm BP filter (donor) and 610 nm LP filter (acceptor)). Competitive displacement data were then graphed using GraphPad Prism 9 software using a normalized 3-parameter curve fit with the following equation: Y = 100/(1 + 10^(X–LogEC50)).

[7] = target: CDK20/Cyclin H (Homo sapiens, UniProt Q8IZL9); experiment: NanoBRET; assay type: cell-based; settings: read-out: NanoBRET EC50 ± SEM CDK20/Cyclin H
Description: as §1

[8] = target: T6, CDK6/Cyclin D1 (Homo sapiens, UniProt Q00534); experiment: NanoBRET; assay type: cell-based; settings: read-out: NanoBRET EC50 ± SEM CDK6/Cyclin D1
T6 construct: Full-length kinases were obtained as plasmids cloned in frame with a terminal NanoLuc-fusion; CS1810C118 (CCND1); host or cells: HEK293T
Description: as §1

[9] = target: T7, NEK1 (Homo sapiens, UniProt Q96PY6); experiment: DSF; assay type: binding
T7 construct: purchased in-house DSF panel (SGC Frankfurt)
T7 sequence (Q96PY6 1-328): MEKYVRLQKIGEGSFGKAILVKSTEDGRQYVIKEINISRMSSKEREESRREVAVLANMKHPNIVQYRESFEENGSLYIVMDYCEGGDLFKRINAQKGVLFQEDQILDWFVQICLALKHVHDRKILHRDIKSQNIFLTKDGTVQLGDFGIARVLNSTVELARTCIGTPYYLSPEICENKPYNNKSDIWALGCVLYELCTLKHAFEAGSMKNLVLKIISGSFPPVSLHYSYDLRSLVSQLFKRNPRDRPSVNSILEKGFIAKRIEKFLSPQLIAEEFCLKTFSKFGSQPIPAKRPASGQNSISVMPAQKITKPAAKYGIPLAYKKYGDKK
Description: as §2

Chain of CDK18/Cyclin Y (Q07002 whole entry, the tested form may be a part): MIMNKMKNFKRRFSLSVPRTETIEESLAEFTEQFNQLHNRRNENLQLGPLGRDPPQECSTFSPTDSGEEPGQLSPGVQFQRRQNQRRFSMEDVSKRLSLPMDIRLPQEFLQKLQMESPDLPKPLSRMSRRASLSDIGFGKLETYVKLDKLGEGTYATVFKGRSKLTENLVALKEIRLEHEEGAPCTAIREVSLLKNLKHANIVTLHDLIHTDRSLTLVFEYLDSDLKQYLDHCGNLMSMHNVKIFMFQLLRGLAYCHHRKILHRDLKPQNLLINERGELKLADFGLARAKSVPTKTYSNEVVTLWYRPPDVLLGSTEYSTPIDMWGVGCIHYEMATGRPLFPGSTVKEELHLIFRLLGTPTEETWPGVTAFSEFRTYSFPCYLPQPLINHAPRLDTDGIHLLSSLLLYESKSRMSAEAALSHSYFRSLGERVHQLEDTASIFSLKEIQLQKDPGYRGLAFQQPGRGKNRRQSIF
Chain of CDK18/Cyclin Y (Q8ND76 2-341 partner limits assumed): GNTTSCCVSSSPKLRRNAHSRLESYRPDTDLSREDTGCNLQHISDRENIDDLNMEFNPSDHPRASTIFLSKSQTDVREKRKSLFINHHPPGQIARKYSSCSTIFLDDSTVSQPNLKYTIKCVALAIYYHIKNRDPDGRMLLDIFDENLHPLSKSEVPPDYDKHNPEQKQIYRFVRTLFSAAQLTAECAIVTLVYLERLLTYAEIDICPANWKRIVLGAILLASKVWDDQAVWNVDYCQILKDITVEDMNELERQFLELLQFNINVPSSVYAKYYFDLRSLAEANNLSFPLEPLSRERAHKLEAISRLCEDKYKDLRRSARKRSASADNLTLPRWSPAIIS
T4 sequence (Q13557 11-309): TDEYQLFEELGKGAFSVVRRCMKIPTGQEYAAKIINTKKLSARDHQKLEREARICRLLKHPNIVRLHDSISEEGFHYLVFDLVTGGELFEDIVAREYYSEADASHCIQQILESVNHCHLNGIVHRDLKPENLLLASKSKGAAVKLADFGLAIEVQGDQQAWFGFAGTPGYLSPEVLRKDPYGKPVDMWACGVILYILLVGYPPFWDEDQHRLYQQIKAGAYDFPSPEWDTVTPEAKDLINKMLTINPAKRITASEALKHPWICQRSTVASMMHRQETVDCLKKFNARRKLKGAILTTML
Chain of CDK20/Cyclin H (Q8IZL9 whole entry): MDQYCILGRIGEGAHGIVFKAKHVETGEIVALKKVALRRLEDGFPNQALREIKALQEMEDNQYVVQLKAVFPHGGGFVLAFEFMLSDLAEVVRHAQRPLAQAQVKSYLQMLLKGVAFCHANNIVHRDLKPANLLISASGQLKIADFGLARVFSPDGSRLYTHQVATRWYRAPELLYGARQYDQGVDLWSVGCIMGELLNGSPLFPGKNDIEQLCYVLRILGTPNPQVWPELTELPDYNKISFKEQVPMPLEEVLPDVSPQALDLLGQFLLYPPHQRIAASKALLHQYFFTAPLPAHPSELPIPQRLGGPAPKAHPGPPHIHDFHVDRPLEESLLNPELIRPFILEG
Chain of CDK20/Cyclin H (P51946 whole entry partner): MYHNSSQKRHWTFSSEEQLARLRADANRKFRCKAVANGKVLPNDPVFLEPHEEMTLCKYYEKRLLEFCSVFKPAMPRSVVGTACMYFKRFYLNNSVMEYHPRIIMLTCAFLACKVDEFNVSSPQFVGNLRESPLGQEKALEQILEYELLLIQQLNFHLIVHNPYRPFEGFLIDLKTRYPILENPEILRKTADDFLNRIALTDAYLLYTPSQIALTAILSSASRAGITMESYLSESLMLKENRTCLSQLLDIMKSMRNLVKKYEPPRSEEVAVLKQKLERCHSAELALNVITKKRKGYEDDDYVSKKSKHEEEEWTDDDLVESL
T6 sequence (Q00534 whole entry, the tested form may be a part): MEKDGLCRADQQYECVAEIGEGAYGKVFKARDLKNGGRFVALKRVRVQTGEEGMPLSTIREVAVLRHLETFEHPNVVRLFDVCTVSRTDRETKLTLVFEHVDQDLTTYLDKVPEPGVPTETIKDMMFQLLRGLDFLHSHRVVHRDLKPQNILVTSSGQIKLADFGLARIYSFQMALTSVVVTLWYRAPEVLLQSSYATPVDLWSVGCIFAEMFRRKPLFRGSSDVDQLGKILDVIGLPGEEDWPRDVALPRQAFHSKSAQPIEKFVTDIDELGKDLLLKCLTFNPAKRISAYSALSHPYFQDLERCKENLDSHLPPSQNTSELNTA
T6 sequence (P24385 whole entry partner, the tested form may be a part): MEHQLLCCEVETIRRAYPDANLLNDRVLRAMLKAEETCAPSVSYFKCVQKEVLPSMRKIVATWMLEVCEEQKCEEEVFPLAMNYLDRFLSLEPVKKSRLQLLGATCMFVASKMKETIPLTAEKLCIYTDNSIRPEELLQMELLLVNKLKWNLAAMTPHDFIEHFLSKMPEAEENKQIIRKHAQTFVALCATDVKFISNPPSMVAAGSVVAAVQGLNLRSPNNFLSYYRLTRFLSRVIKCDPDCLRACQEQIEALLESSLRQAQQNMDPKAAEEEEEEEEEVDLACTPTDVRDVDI
T2 sequence (P12931 254-536): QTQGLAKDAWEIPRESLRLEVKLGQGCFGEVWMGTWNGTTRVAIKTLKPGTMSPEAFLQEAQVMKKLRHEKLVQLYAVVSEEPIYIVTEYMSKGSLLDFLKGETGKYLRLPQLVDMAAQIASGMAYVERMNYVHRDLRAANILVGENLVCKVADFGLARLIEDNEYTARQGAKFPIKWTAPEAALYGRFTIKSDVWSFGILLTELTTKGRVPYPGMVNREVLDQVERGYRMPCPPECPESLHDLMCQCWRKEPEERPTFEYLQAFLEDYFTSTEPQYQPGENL
T5 sequence (P21802 458-770): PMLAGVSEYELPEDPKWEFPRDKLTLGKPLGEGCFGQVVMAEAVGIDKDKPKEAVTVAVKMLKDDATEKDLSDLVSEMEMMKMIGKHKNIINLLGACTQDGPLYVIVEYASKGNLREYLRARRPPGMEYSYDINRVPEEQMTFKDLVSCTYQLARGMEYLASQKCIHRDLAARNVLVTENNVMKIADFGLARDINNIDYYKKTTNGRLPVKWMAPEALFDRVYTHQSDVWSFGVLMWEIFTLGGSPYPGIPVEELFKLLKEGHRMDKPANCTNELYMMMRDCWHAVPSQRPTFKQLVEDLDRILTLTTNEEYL

CC(C)OC(=O)c1cc(Nc2ccnc(NCc3ccc(NC(=O)OC(C)(C)C)cc3)n2)n[nH]1 [42d, isopropyl 3-((2-((4-((tert-butoxycarbonyl)amino)benzyl)amino)pyrimidin-4-yl)amino)-1H-pyrazole-5-carboxylate]
ΔTm DMPK1 [1]: -0.1 °C
ΔTm SRC [2]: 0.4 °C
ΔTm EPHA5 [3]: -0.6 °C
ΔTm CAMK2D [4]: -0.4 °C
ΔTm FGFR2 [5]: 0.1 °C
EC50 [6]: 0.128 ± 0.0104 µM
EC50 [7]: 0.745 ± 0.35 µM
EC50 [8]: 0.959 ± 0.391 µM
ΔTm NEK1 [9]: 0.2 °C

N#CCc1ccc(Nc2nccc(Nc3cc(C4CC4)[nH]n3)n2)cc1 [compound 1, reference compound]
ΔTm DMPK1 [1]: 3.2 °C
ΔTm SRC [2]: 4.4 °C
ΔTm EPHA5 [3]: 6.3 °C
ΔTm CAMK2D [4]: 4.5 °C
ΔTm FGFR2 [5]: 5.9 °C
EC50 [6]: 0.025 ± 0.0089 µM
EC50 [7]: 2.66 ± 0.568 µM
EC50 [8]: 0.0105 ± 0.0038 µM
ΔTm NEK1 [9]: 1.1 °C

COC(=O)c1cc(Nc2ccnc(NCCOCCNC(=O)OC(C)(C)C)n2)[nH]n1 [21d, methyl 5-((2-((2-(2-((tert-butoxycarbonyl)amino)ethoxy)ethyl)amino)pyrimidin-4-yl)amino)-1H-pyrazole-3-carboxylate]
ΔTm DMPK1 [1]: 0.5 °C
ΔTm SRC [2]: 0.5 °C
ΔTm EPHA5 [3]: 0.2 °C
ΔTm CAMK2D [4]: 0.8 °C
ΔTm FGFR2 [5]: 1.5 °C
ΔTm NEK1 [9]: 0.1 °C

CC(C)(C)OC(=O)Nc1ccc(CNc2nccc(Nc3cc(C(=O)OC(C)(C)C)[nH]n3)n2)cc1 [43d, tert-butyl 3-((2-((4-((tert-butoxycarbonyl)amino)benzyl)amino)pyrimidin-4-yl)amino)-1H-pyrazole-5-carboxylate]
ΔTm DMPK1 [1]: -0.1 °C
ΔTm SRC [2]: 0.6 °C
ΔTm EPHA5 [3]: -2.7 °C
ΔTm CAMK2D [4]: -0.1 °C
ΔTm FGFR2 [5]: 0.3 °C
EC50 [6]: 0.121 µM
EC50 [7]: 1.71 ± 0.222 µM
EC50 [8]: 1.74 ± 0.206 µM
ΔTm NEK1 [9]: 0.1 °C

COC(=O)c1cc(Nc2ccnc(NCc3ccc(NC(=O)OC(C)(C)C)cc3)n2)[nH]n1 [21i, methyl 5-((2-((4-((tert-butoxycarbonyl)amino)benzyl)amino)pyrimidin-4-yl)amino)-1H-pyrazole-3-carboxylate]
ΔTm DMPK1 [1]: 0.1 °C
ΔTm SRC [2]: 0.6 °C
ΔTm EPHA5 [3]: 0.2 °C
ΔTm CAMK2D [4]: 0.6 °C
ΔTm FGFR2 [5]: 0.2 °C
EC50 [6]: 1.62 ± 0.287 µM
EC50 [7]: 8.42 ± 0.629 µM
EC50 [8]: 7.45 ± 1.74 µM
ΔTm NEK1 [9]: 0.4 °C
